Test results from patent publication US20220204476A1, “RNA VIRUS INHIBITOR COMPOUNDS AND USES THEREOF” (The Governors of the University of Alberta, priority 2020, published 2022).
pEC50, pIC50: −log10 of the molar value. Read-outs that look alike come from different tables or passages of the source.

Experiments:
[1] = system: SARS-CoV-2; experiment: SARS-CoV-2 in vitro plaque reduction assay in Vero E6 cells; format: cell-based; settings: plaques counted after 48 h, >5 μM = did not reduce plaque numbers by half at 10 μM, read-out: SARS-CoV-2 Antiviral EC50
[2] = target: SARS-CoV-2 3CLP (Severe acute respiratory syndrome coronavirus 2, UniProt P0DTD1); experiment: SARS-CoV-2 3CLP inhibition, FRET-based cleavage assay; format: biochemical; settings: 80 nM SARS-CoV-2 3CLP, 100 μM substrate, 37° C., 10 min incubation, pH 7.8; read-out: 3CL Protease IC50
[3] = Cytotoxicity, CellTiter-Glo luminescent cell viability assay; settings: human (A549) and green monkey (Vero E6)
[4] = Severe acute respiratory syndrome coronavirus 2, Vero C1008, MOI 0.0001 pfu/cell

Row | SMILES | pEC50 [1, 4] | pIC50 [2] | CC50 at 24 h [3] [µM] | pEC50 ([1]; MOI 0.0001 pfu/cell)
1 | CC(C)C[C@H](NC(=O)[C@H]1CCCO1)C(=O)N[C@@H](C[C@@H]1CCNC1=O)C(=O)COC(=O)c1c(C(F)(F)F)cccc1C(F)(F)F [Compound 74, (3S)-2-oxo-3-({N-[(2R)-oxolane-2-carbonyl]-L-leucyl}amino)-4-[(3S)-2-oxopyrrolidin-3-yl]butyl 2,6-bis(trifluoromethyl)benzoate] | > 6.00 | 6.96 | > 200 | –
2 | Cc1cc(C)c(C(=O)OCC(=O)[C@H](C[C@@H]2CCCNC2=O)NC(=O)[C@H](CC(C)C)NC(=O)[C@H]2CCCO2)c(C)n1 [Compound 73, (3S)-2-oxo-3-({N-[(2R)-oxolane-2-carbonyl]-L-leucyl}amino)-4-[(3S)-2-oxopiperidin-3-yl]butyl 2,4,6-trimethylpyridine-3-carboxylate] | > 6.00 | 6.72 | > 200 | –
3 | COc1cccc2[nH]c(C(=O)N[C@@H](CC(C)C)C(=O)N[C@@H](C[C@@H]3CCCNC3=O)C(=O)COC(=O)c3c(Cl)cccc3Cl)cc12 [Compound 5, (3S)-3-{[N-(4-methoxy-1H-indole-2-carbonyl)-L-leucyl]amino}-2-oxo-4-[(3S)-2-oxopiperidin-3-yl]butyl 2,6-dichlorobenzoate] | – | 8.19 | > 200 | –
4 | COc1cc(Cl)cc2[nH]c(C(=O)N[C@@H](CC(C)(C)C)C(=O)N[C@H](C#N)C[C@@H]3CCCNC3=O)cc12 [Compound 35, 6-chloro-N-[(2S)-1-({(1S)-1-cyano-2-[(3S)-2-oxopiperidin-3-yl]ethyl}amino)-4,4-dimethyl-1-oxopentan-2-yl]-4-methoxy-1H-indole-2-carboxamide] | 5.82 | – | > 200 | –
5 | CC(C)(C)C[C@H](NC(=O)OCC1c2ccccc2-c2ccccc21)C(=O)N[C@H](C#N)C[C@@H]1CCCNC1=O [Compound 86, N-{(1S)-1-cyano-2-[(3S)-2-oxopiperidin-3-yl]ethyl}-N^2-{[(9H-fluoren-9-yl)methoxy]carbonyl}-4-methyl-L-leucinamide] | 5.37 | 6.96 | – | –
6 | CC(C)C[C@H](NCC1Cc2ccccc2O1)C(=O)N[C@H](C#N)C[C@@H]1CCCNC1=O (single isomer, unassigned) [Compound 97] | – | < 3.30 | – | < 5.30
7 | COc1cccc2[nH]c(C(=O)N[C@@H](CC(C)C)C(=O)N[C@@H](C[C@@H]3CCCNC3=O)C(=O)COC(=O)c3cccnc3C(F)(F)F)cc12 [Compound 10, (3S)-3-{[N-(4-methoxy-1H-indole-2-carbonyl)-L-leucyl]amino}-2-oxo-4-[(3S)-2-oxopiperidin-3-yl]butyl 2-(trifluoromethyl)pyridine-3-carboxylate] | < 5.30 | 7.28 | – | –
8 | Cc1ccc(S(=O)(=O)N[C@@H](CC(C)C)C(=O)N[C@H](C#N)C[C@@H]2CCCNC2=O)cn1 [Compound 85, N-{(1S)-1-cyano-2-[(3S)-2-oxopiperidin-3-yl]ethyl}-N^2-(6-methylpyridine-3-sulfonyl)-L-leucinamide] | < 5.30 | 5.19 | – | –
9 | COc1cccc2[nH]c(C(=O)N[C@@H](CC(C)(C)C)C(=O)N[C@H](C#N)C[C@@H]3CCCNC3=O)cc12 [Compound 70, N-[(2S)-1-({(1S)-1-cyano-2-[(3S)-2-oxopiperidin-3-yl]ethyl}amino)-4,4-dimethyl-1-oxopentan-2-yl]-4-methoxy-1H-indole-2-carboxamide] | < 5.30 | – | > 200 | –
10 | COc1cccc2[nH]c(C(=O)N[C@@H](CC(C)C)C(=O)N[C@@H](C[C@@H]3CCCNC3=O)C(=O)COC(=O)c3cccnc3)cc12 [Compound 4, (3S)-3-{[N-(4-methoxy-1H-indole-2-carbonyl)-L-leucyl]amino}-2-oxo-4-[(3S)-2-oxopiperidin-3-yl]butyl pyridine-3-carboxylate] | < 5.30 | 8.40 | – | –
